From US20050265997A1, “Cancer treatment method by inhibiting MAGE gene expression or function” (WISCONSIN ALUMNI RESEARCH FOUNDATION, priority 2004, published 2005)

Columns and labels:
Type in all cases: cell-based, human
[1] = tested on: MAGE mRNA in HMC-1.1 cell; assay: Genechip array analysis of MAGE mRNA after STI 571; conditions: HMC-1.1 cells, 1 μM STI571 for 4 hours, Means +/- SEM
Text: (§1) The human mast cell line HMC-1 is dependent on the expression of mutant KIT protein which is constitutively activated, and inhibition of activated KIT with a drug induces apoptosis of HMC-1 cells (Ma et al., 2002, The c-KIT mutation causing human mastocytosis is resistant to STI571 and other KIT kinase inhibitors; kinases with enzymatic site mutations show different inhibitor sensitivity profiles than wild-type kinases and those with regulatory-type mutations. Blood 99:1741-4.). However, the mechanism by which KIT inhibitors cause apoptosis in these cells is unknown. To look for genes whose products could regulate and transduce KIT related signals controlling apoptosis, we used gene chip array analysis to study changes in the mRNA levels of specific genes following induction of apoptosis.
HMC-1.1 cells were divided into triplicate cultures of two groups: a control group treated with PBS, and an experimental group treated with 1 μM STI571, a KIT inhibitor for 4 hours. A quarter of the cells were used for Western blots to confirm the KIT inhibition, and the rest were used for total RNA isolation for genechip analysis. We used Affymetrix Genechip human Genome U133A chips. The arrays were hybridized and scanned and the data were analyzed using dChip analysis software. The statistical significance of differences in mRNA expression levels between STI571 treated and control cells were assessed by t-test based on data from three independent replicates. Values are expressed as Means +/−SEM, and p<0.05 was considered statistically significant.

[2] = tested on: HMC-1.1 cells; assay: Induction of apoptosis by STI 571; conditions: following decrease of MAGE mRNA and protein
Text: as §1

[3] = tested on: MAGE-A protein in HMC-1.1 cells; assay: Western blot of MAGE-A protein after STI 571; conditions: 12 and 24 hours after administration of STI 571

Structure (SMILES): Cc1ccc(NC(=O)c2ccc(CN3CCN(C)CC3)cc2)cc1Nc1nccc(-c2cccnc2)n1 [STI 571]
- mRNA level, melanoma antigen, family A, 1 (NM_004988) ([1]; three replicates, PBS control 757 ± 29): 562 ± 33
- mRNA level, melanoma antigen, family A, 12 (BC003408) ([1]; PBS control 513 ± 29): 410 ± 26
- mRNA level, melanoma antigen, family E, 1 (NM_016249) ([1]; PBS control 514 ± 13): 405 ± 21
- mRNA level, melanoma antigen, family A, 5 (AI200443) ([1]; PBS control 520 ± 28): 414 ± 28
- mRNA level, melanoma antigen, family A, 6 (U10691) ([1]; PBS control 896 ± 54): 712 ± 42
- mRNA level, melanoma antigen, family A, 3 (BC000340) ([1]; PBS control 977 ± 67): 779 ± 32
- apoptosis of the cells [2]: followed by apoptosis of the cells
- MAGE-A protein level (Western blot) [3]: down-regulation of MAGE-A protein
